Experimental data published in US20240000084A1, “ANTI[…], ANTIBACTERIAL AGENT, ANTIVIRAL AGENT, PATHOGEN DISPOSAL DEVICE, ANTI[…] PRODUCTION METHOD, ANTIBACTERIAL TREATMENT METHOD, VIRUS INACTIVATION METHOD, AND PATHOGEN DISPOSAL METHOD” (ACENET INC., priority 2020, published 2024).
Where two headings read alike, the source gives them in different places.

What was measured:
[1] = Lewis acidity measuring method (1): reaction rate constant of reaction between CoTPP and oxygen in the presence of a Lewis acid; type: physicochemical
Source text: Chem. Soc. […] Specifically, the Lewis acidity can be measured by the following “Lewis acidity measuring method (1)”, which is herein incorporated by reference.
As to acetonitrile (MeCN) that contains cobalt tetraphenylporphyrin, saturated O2, and an object whose Lewis acidity is to be measured (e.g., a cation of a metal or the like, represented by M^n+ in the following chemical reaction formula (1a)) in the following chemical reaction formula (1a), the change of the ultraviolet-visible absorption spectrum is measured at room temperature. On the basis of the obtained reaction rate constant (kcat), the ΔE value (eV), which is an indicator of the Lewis acidity, can be calculated. The higher the kcat, the stronger the Lewis acidity. Furthermore, the Lewis acidity of an organic compound can be estimated from the energy level of the lowest unoccupied molecular orbital (LUMO) calculated by the quantum chemical calculation. The higher the value at the positive side, the stronger the Lewis acidity.
In the following table, the numerical value expressed in the unit “kcat, M^−2s^−1” is a reaction rate constant of a reaction between CoTPP and oxygen in the presence of a Lewis acid. The numerical value expressed in the unit “LUMO, eV” is the energy level of LUMO.

[2] = tested on: bacteria A (any one of Staphylococcus aureus, Escherichia coli MV1184, Streptococcus pyogenes, Streptcoccus mutans, Porphyromonas gingivalis, Treponema …); test: Bactericidal action on bacteria A-containing material (Experimental Example 1); type: cell-based; details: chlorine dioxide generated by bringing ozone gas into contact with a radical source; cultured after contact

| Compound | kcat, reaction rate constant of reaction between CoTPP and oxygen in the presence of a Lewis acid [1] [M^−2 s^−1] | further results |
| --- | --- | --- |
| CC(C)(C)CC(C)(C)c1ccc(OCCOCC[N+](C)(C)Cc2ccccc2)cc1.[Cl-] [benzethonium chloride] | 0.24 | – |
| [O][Cl+][O-] [chlorine dioxide] | – | bactericidal effect on bacteria A [2]: exhibits a bactericidal effect |
| CCCC[N+](CCCC)(CCCC)CCCC.F[P-](F)(F)(F)(F)F [tetrabutylammonium hexafluorophosphate] | >0.1 | – |
| benzalkonium chloride | – | kcat, reaction rate constant of reaction between CoTPP and oxygen in the presence of a Lewis acid ([1]; acetonitrile, saturated O2, room temperature): 0.18 M^−2 s^−1 |
